Measurements as given in patent US9617311B2, “Use of PEDF-derived polypeptides for promoting stem cells proliferation and wound healing” (Mackay Memorial Hospital, priority 2011, dated 2017).

Legend:
corneal wound = test: Corneal wound healing in mice, fluorescein staining; assay type: in vivo, C57BL/6 mice; settings: for corneal re-epithelialization after 48 hours: 20 μl eye ointment with 50 μM peptide once a day, 2 mm wound; for residual epithelial defect, percentage of the original wound: 50 μM peptide eye ointment once a day
Experimental: The experiments were performed using eight-week-old female C57BL/6 mice, and the procedures were approved by the Mackay Memorial Hospital Review Board for animal investigation. Animals were anesthetized by an intraperitoneal injection of a mixture of zoletil (6 mg/kg) and xylazine (3 mg/kg). One filter paper (0.9 mm diameter) soaked with 20% ethanol was placed on the central cornea of right eye for one minute and then irrigated extensively with PBS. Subsequently, mechanical epithelial scrape was performed using a punch under a dissection microscope to create a circular injury (2 mm diameter) at the entire corneal region of the mouse eye without encroaching the corneal stroma, limbus or conjunctiva.
Each synthetic peptide (the 39-mer, 34-mer, 29-mer, 25-mer, 20-mer, 18-mer, Mo 29-mer or Mo 20-mer) was reconstituted in DMSO as stock (5 mM) and mixed with TOBREX® eye ointment (Alcon; containing 0.3% Tobramycin and 0.5% Chlorobutanol) to a concentration 50 μM. In each of the treatment group (n=6-10), the right eye was treated with 20 μl eye ointment containing the synthetic peptide once a day after the scrape injury. In the control group (n=20), right eye was treated with 20 μl of eye ointment mixed with vehicle DMSO. Wound size was determined by staining with topical fluorescein (Fluor-I-Strip, Ayerst Laboratories, Philadelphia, Pa.) and photographed with a digital camera. The area of defect was quantified from the photographs using a computer-assisted image analyzer (Adobe Photoshop CS3 10.0) and was calculated as the percentage of residual epithelial defect at each time point/initial wound area.
To investigate the effect of PEDF-derived short peptides on corneal wound healing in mice, corneal wound was created by a circular punch (2 mm diameter), then control eye-ointment or eye-ointment containing the short synthetic PEDF peptide(s) of this invention was applied to the wounded eye, and wound healing was subsequently evaluated by fluorescein staining. No significant differences in the size of the initial abrasion were noted between synthetic PEDF peptide-treated and control mice.

[1] = system: limbal epithelial stem cells (LSCs); test: In vitro LSC proliferation, BrdU pulse-labeling with ΔNp63α immunostaining; assay type: cell-based, New Zealand white rabbits; settings: BrdU 2 hours; for percentage of BrdU and ΔNp63α-double positive cells per total ΔNp63α-positive cells: 25 nM peptide or 4.5 nM PEDF in medium, control medium 3.0±0.5%, mean±SEM
Excerpt: LSCs were isolated from six-month-old New Zealand white rabbits and used for cell-suspension culture in accordance with the method previously described by Cheng et al. (The growth-promoting effect of KGF on limbal epithelial cells is mediated by upregulation of DeltaNp63alpha through the p38 pathway. J Cell Sci 2009; 122 (Pt 24): 4473-4480) and Wang et al. (Importin 13 serves as a potential marker for corneal epithelial progenitor cells. Stem Cells 2009; 27: 2516-2526) with a slight modification. Rabbit limbal tissues were washed in PBS containing 100 U/ml penicillin and 50 μg/ml gentamicin. After carefully removing the iris, and excessive sclera, the limbal rings were exposed to dispase II (1.2 IU/ml in Hanks' balanced salt solution free of Mg^2+ and Ca^2+) at 4° C. for 16 hours. The loosened epithelial sheets were removed with a cell scraper and separated into single cells by enzymatic digestion (0.05% trypsin, and 0.01% EDTA) for 15 min at 37° C. with gentle shaking and transferred to a stop medium (9 ml of HEPES-buffered DMEM containing 10% FBS). Cells were then collected by centrifugation (400×g for 5 min).
About 1×10^5 cells were seeded on each wells of a 6-well plate and incubated in a DMEM/Ham's F-12 basal medium (10 mM HEPES, 5 ng/ml human EGF, 1% SITE liquid medium, antibiotic-antimicotic solutions, 0.5% DMSO and 0.5 μg/ml hydrocortisone) supplemented with 10% FBS for 2 days, and then shifted to a basal medium or basal medium containing 4.5 nM PEDF, 25 nM 39-mer, 25 nM 34-mer, 25 nM 29-mer, 25 nM 25-mer, 25 nM 20-mer, 25 nM 18-mer, 25 nM Mo 29-mer or 25-nM Mo 20-mer. The cells were continued cultivated at 37° C. under 5% CO2 for another 3 days until they reached confluence (passage 0). LSCs were co-cultured with MMC-treated NIH-3T3 fibroblast feeder cells located within trans-well (0.4 μm pore, BD Biosciences, Bedford, Mass.). For passage purpose, near-confluent cells were harvested again by enzymatic treatment (i.e., 0.25% trypsin), and then 1×10^5 subcultured cells were further cultured in the respective medium, and proliferative capacity of cells was compared every 4 days after continuously culture-subculture (passage).
De-paraffinized tissue sections or 4% paraformaldehyde-fixed LSCs were blocked with 10% goat serum and 5% BSA in PBST (PBS containing 0.1% Tween-20) for 1 hour. Staining was done using primary antibodies against ΔNp63α (1:150 dilution), BrdU (1:250 dilution), and keratin-3 (1:250 dilution) at 37° C. for 2 hours, followed by incubation with the appropriate rhodamine- or FITC-conjugated donkey IgG (1:500 dilution) for 1 hour at RT. Nuclei were identified by counterstaining with Hoechst 33258 for 7 minutes. Images were captured using a Zeiss epifluorescence microscope with a CCD camera and photographs were taken by using the Axiovert software.
2×10^5 limbal cells (the 1st passage) were seeded at a slide coated with FNC COATING MIX® solution (Athena Enzyme Systems, Baltimore, Md.) and incubated with a culture medium for one day. BrdU (final, 10 μM) was added to the culture for 2 hours. After being fixed with 4% paraformaldehyde, cells were exposed to cold methanol for 2 minutes, and then treated with 1 N HCl at RT for 1 hour before performing immunofluorescence. For animal study, BrdU was reconstituted in DMSO as stock (80 mM). 10 μl of BrdU mixed with 90 μl of PBS was intraperitoneally injected into mouse 3 hours prior to euthanasia. DNA synthesis was assessed by BrdU labeling with anti-BrdU antibodies.

Row | Sequence | corneal re-epithelialization after 48 hours (corneal wound) | enhanced LSC proliferation versus control medium ([1]; 25 nM peptide in medium) | residual epithelial defect, percentage of the original wound (corneal wound; 24 hours, control 84.9±5.1%) | residual epithelial defect, percentage of the original wound (corneal wound; 48 hours, control 39.5±3.1%) | percentage of BrdU and ΔNp63α-double positive cells per total ΔNp63α-positive cells [1]
1 | EQRTESIIHRALYYDLIS [18-mer] | incompletely healed wounds | enhanced proliferation was not observed |  |  | 
2 | SLGAEHRTESVIHRALYYDL [Mo 20-mer, synthetic peptide derived from mouse PEDF] | complete corneal re-epithelialization |  | 43.9±7.6% | 6.2±3.5% | 26.3±2.2%
3 | SLGAEHRTESVIHRALYYDLITNPDIHST [Mo 29-mer, synthetic peptide derived from mouse PEDF] | complete corneal re-epithelialization |  | 33.8±5.2% | 4.6±2.3% | 27.1±1.8%
4 | SLGAEQRTESIIHRALYYDL [20-mer, synthetic peptide identical to residues 11-30 of the 39-mer] | complete corneal re-epithelialization |  | 42.2±4.3% | 5.0±3.7% | 31.8±1.7%
5 | SLGAEQRTESIIHRALYYDLISSPDIHGT [29-mer, short synthetic PEDF peptide derived from the 39-mer] | complete corneal re-epithelialization |  | 36.5±6.4% | 3.7±2.9% | 33.9±2.6%
